US20100076015A1, “Aminopyridine Derivatives” (VANTIA LIMITED, priority 2008, published 2010)

What follows are compounds tested against T1, Human KLK1 (Homo sapiens, UniProt P06870) (assay: Determination of the IC50 for KLK1 (fluorogenic substrate H-DVal-Leu-Arg-AFC)). Details: 37° C.
T1 construct: purchased Callbiochem (Calbiochem)
Format: biochemical
Outline: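 hKLK1 + H-DVal-Leu-Arg-AFC, 37° C, varied cpd conc. Initial rate by A410 change → residual activity → IC50.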

T1 sequence (P06870 25-262): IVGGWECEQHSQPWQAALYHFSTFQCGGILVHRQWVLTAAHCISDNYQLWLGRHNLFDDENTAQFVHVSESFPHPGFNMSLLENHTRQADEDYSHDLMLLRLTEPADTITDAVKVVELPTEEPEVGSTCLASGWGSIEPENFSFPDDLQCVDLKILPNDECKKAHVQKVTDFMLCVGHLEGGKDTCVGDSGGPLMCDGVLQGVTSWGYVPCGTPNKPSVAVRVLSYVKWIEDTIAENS

| Structure (SMILES) | IC50 [nM] |
| --- | --- |
| Cc1nc(N)ccc1CNC(=O)[C@@H](Cc1cccc(Cl)c1)NC(=O)c1cc2ccccc2[nH]1 [Example 315, 1H-Indole-2-carboxylic acid [(R)-1-[(6-amino-2-methyl-pyridin-3-ylmethyl)-carbamoyl]-2-(3-chloro-phenyl)-ethyl]-amide] | 68.6 |
| Cc1nc(N)ccc1CNC(=O)[C@H](Cc1ccc(Cl)c(Cl)c1)NC(=O)[C@H]1CC(F)(F)CN1 [Example 192, (R)-4,4-Difluoro-pyrrolidine-2-carboxylic acid [(S)-1-[(6-amino-2-methyl-pyridin-3-ylmethyl)-carbamoyl]-2-(3,4-dichloro-phenyl)-ethyl]-amide] | 60.4 |
| COc1ccc2[nH]c(C(=O)N[C@@H](Cc3cccc(Cl)c3)C(=O)NCc3ccc(N)nc3C)cc2c1 [Example 316, 5-Methoxy-1H-indole-2-carboxylic acid [(S)-1-[(6-amino-2-methyl-pyridin-3-ylmethyl)-carbamoyl]-2-(3-chloro-phenyl)-ethyl]-amide] | 76.7 |
| CC(C)N(C(C)C)[C@@H](C)C(=O)N[C@@H](Cc1ccc(F)cc1)C(=O)NCc1ccc(N)nc1 [Example 372, (S)—N-[(S)-1-[(6-Amino-pyridin-3-ylmethyl)-carbamoyl]-2-(4-fluoro-phenyl)-ethyl]-2-diisopropylamino-propionamide] | 34.3 |
| CCN(C)[C@@H](Cc1ccccc1)C(=O)N[C@@H](Cc1ccc(F)c(F)c1)C(=O)NCc1ccc(N)nc1 [Example 352, (S)—N-[(S)-1-[(6-Amino-pyridin-3-ylmethyl)-carbamoyl]-2-(3,4-difluoro-phenyl)-ethyl]-2-(ethyl-methyl-amino)-3-phenyl-propionamide] | 13.7 |
| Nc1ccc(CNC(=O)[C@H](Cc2ccc(F)cc2)NC(=O)[C@H]2CCCCN2)cn1 [Example 73, (R)-Piperidine-2-carboxylic acid [(S)-1-[(6-amino-pyridin-3-ylmethyl)-carbamoyl]-2-(4-fluoro-phenyl)-ethyl]-amide] | 1.1 |
| CN(C/C=C/c1ccccc1)CC(=O)N[C@@H](Cc1ccc(F)c(F)c1)C(=O)NCc1ccc(N)nc1 [Example 162, (S)—N-(6-Amino-pyridin-3-ylmethyl)-3-(3,4-difluoro-phenyl)-2-{2-[methyl-((E)-3-phenyl-allyl)-amino]-acetylamino}-propionamide] | 38.1 |
| CC(C)N1CCC[C@@H]1C(=O)N[C@@H](Cc1cccc2ccccc12)C(=O)NCc1ccc(N)nc1 [Example 118, (R)-1-Isopropyl-pyrrolidine-2-carboxylic acid {(S)-1-[(6-amino-pyridin-3-ylmethyl)-carbamoyl]-2-naphthalen-1-yl-ethyl}-amide] | 2.1 |
| CN(CC(=O)N[C@@H](Cc1ccc(F)c(F)c1)C(=O)NCc1ccc(N)nc1)c1ccccc1 [Example 174, (S)—N-(6-Amino-pyridin-3-ylmethyl)-3-(3,4-difluoro-phenyl)-2-[2-(methyl-phenyl-amino)-acetylamino]-propionamide] | 90 |
| CCC(C)[C@H](C(=O)N[C@@H](Cc1cc(F)cc(F)c1)C(=O)NCc1ccc(N)nc1)N(C)C (stereo partly drawn) [Example 424, (R)-2-Dimethylamino-3-methyl-pentanoic acid [(S)-1-[(6-amino-pyridin-3-ylmethyl)-carbamoyl]-2-(3,5-difluoro-phenyl)-ethyl]-amide] | 28 |
| Cc1nc(N)ccc1CNC(=O)[C@H](Cc1ccc(Cl)c(Cl)c1)NC(=O)[C@H]1CCc2ccccc2N1 [Example 202, (R)-1,2,3,4-Tetrahydro-quinoline-2-carboxylic acid [(S)-1-[(6-amino-2-methyl-pyridin-3-ylmethyl)-carbamoyl]-2-(3,4-dichloro-phenyl)-ethyl]-amide] | 22.5 |
| CC(C)N1CCC[C@@H]1C(=O)N[C@@H](Cc1ccc(Cl)c(Cl)c1)C(=O)NCc1ccc(N)nc1 [Example 117, (R)-1-Isopropyl-pyrrolidine-2-carboxylic acid [(S)-1-[(6-amino-pyridin-3-ylmethyl)-carbamoyl]-2-(3,4-dichloro-phenyl)-ethyl]-amide] | 0.45 |
| CN1CCC[C@@H]1C(=O)N[C@@H](Cc1cc(F)c(F)cc1F)C(=O)NCc1ccc(N)nc1 [Example 94, (R)-1-Methyl-pyrrolidine-2-carboxylic acid [(S)-1-[(6-amino-pyridin-3-ylmethyl)-carbamoyl]-2-(2,4,5-trifluoro-phenyl)-ethyl]-amide] | 12.5 |
| CN(CC(=O)N[C@@H](Cc1ccc(F)c(F)c1)C(=O)NCc1ccc(N)nc1)CC1CCCCC1 [Example 169, (S)—N-(6-Amino-pyridin-3-ylmethyl)-2-[2-(cyclohexylmethyl-methyl-amino)-acetylamino]-3-(3,4-difluoro-phenyl)-propionamide] | 334 |
| CN1CCC[C@@H]1C(=O)N[C@@H](Cc1ccccc1F)C(=O)NCc1ccc(N)nc1 [Example 108, (R)-1-Methyl-pyrrolidine-2-carboxylic acid [(S)-1-[(6-amino-pyridin-3-ylmethyl)-carbamoyl]-2-(2-fluoro-phenyl)-ethyl]-amide] | 34 |
| Cc1cc[nH]c1C(=O)N[C@@H](Cc1ccc(Cl)c(Cl)c1)C(=O)NCc1ccc(N)nc1 [Example 264, 3-Methyl-1H-pyrrole-2-carboxylic acid [(S)-1-[(6-amino-pyridin-3-ylmethyl)-carbamoyl]-2-(3,4-dichloro-phenyl)-ethyl]-amide] | 3.1 |
| C[C@H](C(=O)N[C@@H](Cc1ccc(C(F)(F)F)cc1)C(=O)NCc1ccc(N)nc1)N1CCCCC1 [Example 421, (R)—N-[(S)-1-[(6-Amino-pyridin-3-ylmethyl)-carbamoyl]-2-(4-trifluoromethyl-phenyl)-ethyl]-2-piperidin-1-yl-propionamide] | 67.4 |
| CN(CC(=O)N[C@@H](Cc1ccc(Cl)c(Cl)c1)C(=O)NCc1ccc(N)nc1)Cc1ccccc1 [Example 152, (S)—N-(6-Amino-pyridin-3-ylmethyl)-2-[2-(benzyl-methyl-amino)-acetylamino]-3-(3,4-dichloro-phenyl)-propionamide] | 5.7 |
| CCCCN(C)[C@@H](C)C(=O)N[C@@H](Cc1ccc(F)c(F)c1)C(=O)NCc1ccc(N)nc1 [Example 347, (S)—N-[(S)-1-[(6-Amino-pyridin-3-ylmethyl)-carbamoyl]-2-(3,4-difluoro-phenyl)-ethyl]-2-(butyl-methyl-amino)-propionamide] | 24.5 |
| CCC(C)[C@@H](N)C(=O)N[C@@H](Cc1cccc2ccccc12)C(=O)NCc1cnc(N)c(C)c1 (stereo partly drawn) [Example 209, (R)-2-Amino-3-methyl-pentanoic acid {(S)-1-[(6-amino-5-methyl-pyridin-3-ylmethyl)-carbamoyl]-2-naphthalen-1-yl-ethyl}-amide] | 36 |
| C[C@@H](C(=O)N[C@@H](Cc1ccc(F)c(F)c1)C(=O)NCc1ccc(N)nc1)N1CCCC1 [Example 357, (S)—N-[(S)-1-[(6-Amino-pyridin-3-ylmethyl)-carbamoyl]-2-(3,4-difluoro-phenyl)-ethyl]-2-pyrrolidin-1-yl-propionamide] | 3 |
| CC(C)CN(C)[C@@H](C)C(=O)N[C@@H](Cc1ccc(F)c(F)c1)C(=O)NCc1ccc(N)nc1 [Example 177, (S)—N-[(S)-1-[(6-Amino-pyridin-3-ylmethyl)-carbamoyl]-2-(3,4-difluoro-phenyl)-ethyl]-2-(isobutyl-methyl-amino)-propionamide] | 1.9 |
